Where a name gives a salt, the structure may show the parent alone.
Experiments:
[1] = target: T1, recombinant human aggrecanase 2 (ADAMTS-5) (Homo sapiens, UniProt Q9UNA0); assay: InviLISA Aggrecanase activity assay, aggrecanase 2; type: biochemical; settings: for inhibition at 10 µM: inhibitors tested at 10 μM final concentration
T1 construct: ADAMTS-5 aminoacids S262-G625 with C-terminal tag; purchased Invitek GmbH, Berlin
T1 sequence (Q9UNA0 262-625): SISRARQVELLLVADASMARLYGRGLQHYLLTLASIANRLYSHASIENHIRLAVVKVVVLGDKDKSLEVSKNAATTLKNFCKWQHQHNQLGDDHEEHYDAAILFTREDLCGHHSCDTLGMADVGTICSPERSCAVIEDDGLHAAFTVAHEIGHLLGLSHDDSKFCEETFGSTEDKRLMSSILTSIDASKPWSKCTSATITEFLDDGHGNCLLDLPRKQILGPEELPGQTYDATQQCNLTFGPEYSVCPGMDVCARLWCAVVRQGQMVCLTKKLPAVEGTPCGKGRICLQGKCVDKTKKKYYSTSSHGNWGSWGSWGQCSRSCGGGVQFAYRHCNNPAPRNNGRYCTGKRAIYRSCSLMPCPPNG
Description: (§1) The InviLISA Aggrecanase activity assay (Invitek GmbH, Berlin) was used to screen and characterise aggrecanase inhibitors. The assay was carried out in two steps, according to Will et al. (Will H, Dettloff M, Bendzko P, Svenshnikov P, A Quantitative Assay for aggrecanase Activity; 2005, Journal of Biomolecular Techniques, 16 (4), 459-472). A recombinant fragment of human aggrecan interglobular domain (aggrecan-IGD; T331-G458) is first digested with aggrecanase. Proteolytic cleavage of the substrate releases an aggrecan peptide with the N-terminal sequence ARGSVIL (ARGSVIL-peptide), that was then quantified with two monoclonal anti-peptide antibodies (ELISA module). For precise calculation of product, ARGSVIL-peptide standard concentrations were run in parallel.
(§2) 1) Proteolysis of aggrecan-IGD by aggrecanase. Aggrecan-IGD was incubated with standard recombinant human aggrecanase 1 (ADAMTS-4 aminoacids F213-A579 with C-terminal tag) or standard recombinant human aggrecanase 2 (ADAMTS-5 aminoacids S262-G625 with C-terminal tag) in the absence (total enzymatic activity) or presence (modulated enzymatic activity) of inhibitors to be tested. Enzymes were pre-incubated with the inhibitors or the appropriate concentration of diluent as control (DMSO 0.25% final concentration in proteolysis), at 4° C. for 30 min prior to assaying their activity. Five microliters of mix enzyme-inhibitor were added to the substrate (0.1 μM final concentration) in a total volume of 100 μL and incubated for 15 minutes at 37° C. The reaction was terminated with EDTA-containing buffer. The inhibitors were tested at 10 μM final concentration and compounds achieving ≧50% inhibitory effect were evaluated for IC50 calculation, in a range generally extended from 0.1 to 10 μM final concentration.
(§3) 2) Aggrecan peptide ELISA. ARGSVIL-peptide standard, proteolytic digestion of Aggrecan-IGD with standard aggrecanases and test samples were incubated in microtiter wells pre-coated with anti-ARGSVIL-neoepitope antibody. ARGSVIL-peptide is bound to the coated antibody, while other components are removed by washing and aspiration. The bound ARGSVIL-peptide was detected with a second peroxidase-labelled antibody. Any excess of the conjugate was removed by washing and aspiration. The amount of peroxidase bound to different wells was determined in reactions with peroxidase substrate TMB. The reactions are stopped by addition of sulphuric acid solution and absorbance is read at 450 nm in a microtiter plate spectrophotometer.

[2] = target: T2, recombinant human aggrecanase 1 (ADAMTS-4) (Homo sapiens, UniProt O75173); assay: InviLISA Aggrecanase activity assay, aggrecanase 1; type: biochemical; settings: for inhibition at 10 µM: inhibitors tested at 10 μM final concentration
T2 construct: ADAMTS-4 aminoacids F213-A579 with C-terminal tag; purchased Invitek GmbH, Berlin
T2 sequence (O75173 213-579): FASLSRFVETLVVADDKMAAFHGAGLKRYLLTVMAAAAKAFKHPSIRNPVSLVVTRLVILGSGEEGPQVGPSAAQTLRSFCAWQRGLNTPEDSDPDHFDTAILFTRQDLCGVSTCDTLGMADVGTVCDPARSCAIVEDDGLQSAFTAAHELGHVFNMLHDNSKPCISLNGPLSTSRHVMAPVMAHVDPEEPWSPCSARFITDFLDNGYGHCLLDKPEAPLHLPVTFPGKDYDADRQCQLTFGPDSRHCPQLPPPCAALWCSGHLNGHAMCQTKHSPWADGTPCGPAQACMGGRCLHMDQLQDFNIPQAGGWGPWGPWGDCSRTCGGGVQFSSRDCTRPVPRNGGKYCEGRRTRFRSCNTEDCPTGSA
Description: as §1, §2, §3

[3] = test system: mechanical hyperalgesia associated with STZ-induced diabetes; assay: STZ-induced diabetes mechanical hyperalgesia, model of neuropathic pain (Randall-Selitto); type: in vivo, rat
Description: Painful diabetic neuropathy is one of the most common complications of insulin-dependent diabetes in man; in particular, diabetes can be associated with neuropathic pain which fails to be treated by classical analgesics. Streptozotocin (STZ)-induced diabetes in the rat has been increasingly used as a model of painful diabetic neuropathy to assess the efficacies of potential analgesic agents (C. Courteix, Pain 1993, 53, 81-8). A representative compound of the invention was tested for efficacy in reducing mechanical hyperalgesia associated with STZ-induced diabetes in the rat, according to the experimental model as described by the literature. Diabetes was produced with the injection of a single dose (75 mg/Kg i.p.) of STZ. In the following four weeks after the induction of diabetes the clinical symptoms (weight, body and skin temperature, motility and hyperglycemia) progressively developed by the animals, are strictly monitored.
After four weeks, the scores obtained in diabetic rats to various pain stimuli (in particular mechanical stimuli) were greater than those in normal rats, indicating hyperalgesia. The hyperalgesia induced by diabetes was evaluated using the Randall-Selitto method as above described, and quantitated using the analgesimeter. Also in this case, the difference in the mechanical pain threshold between the basal value (generally 230-250 g) and the one tolerated by the animals treated with the drug, is defined as mechanical hyperalgesia. The compound of the invention was administered i.p. (solution, Tween 80, 10% in saline) at different doses, and mechanical hyperalgesia was measured at the reported time, as maximum percent effect (MPE) which represents the difference (%) in pain threshold between the animals treated with the drug and the controls that received only the vehicle, compared with the weight borne by naïf non-diabetic controls. A 100% protection means that the diabetic animals treated with the compound can tolerate the same stimulus (weight) as the naïf non-diabetic animals. MPE higher than 100% means that the diabetic animal treated with the compound can tolerate stimuli (weight) higher than the control non-diabetic animals (hypoalgesia).
In Table 4, the effect of a representative compound of formula (I), in the above described model of neuropathic pain, is compared with some known pharmacological standards used for the clinical treatment of this pathology. In particular, from the MPE data at 0.5 hrs, the doses yielding a protection of 50% (ED50) and 100% (ED100) have been calculated.

[4] = test system: CFA-induced prolonged inflammation; assay: CFA model of chronic inflammatory pain (Randall-Selitto); type: in vivo, rat
[5] = 10 mg/Kg IP, NE = not effective
[6] = 30 mg/Kg IP, NE = not effective
[7] = 100 mg/Kg IP, NE = not effective
[8] = 300 mg/Kg IP, NE = not effective

## CC(=N)Nc1ccc2oc(-c3cccc(-n4ccnc4)c3)c(O)c(=O)c2c1 [Example 8, 2-[(3-(imidazol-1-yl)-phenyl]-3-hydroxy-6-[(1-iminoethyl)amino]-4H-1-benzopyran-4-one dihydrochloride]
[1]
  IC50: 10 µM

## N=C(CC1CC1)Nc1ccc2oc(-c3ccc(-n4ccnc4)cc3)c(O)c(=O)c2c1 [Example 6, 2-[(4-imidazol-1-yl)-phenyl]-3-hydroxy-6-[(1-iminoethyl-2-cyclopropyl)amino]-4H-1-benzopyran-4-one dihydrochloride monohydrate]
[2]
  IC50: 1.61 µM
[1]
  IC50: 0.2 µM

## N=C(CC1CC1)Nc1ccc2oc(-c3ccc4c(c3)OCO4)c(O)c(=O)c2c1 [Example 18]
[2]
  inhibition at 10 µM: 0%
[1]
  IC50: 4.3 µM

## CN(C)CCC=C1c2ccccc2CCc2ccccc21 [Amitriptyline]
[3]; 3 mg/Kg IP, NE = not effective
  MPE 0.5 hrs: 44%
  MPE 1.5 hrs: 40%
[3]; [5]
  MPE 0.5 hrs: 68%
  MPE 1.5 hrs: 77%
[3]; [6]
  MPE 0.5 hrs: 65%
  MPE 1.5 hrs: 69%
  MPE 3 hrs: 23%
[3]; Rattus norvegicus, IP, calculated from the MPE data at 0.5 hrs, NC = not calculable, read-out: ED50 0.5 hrs
  ED50: 3.76 mg/kg

## COc1ccc(-c2oc3ccc(NC(C)=N)cc3c(=O)c2O)cn1 [Example 20, 2-(6-methoxypyridin-3-yl)-3-hydroxy-6-[(1-iminoethyl)amino]-4H-1-benzopyran-4-one]
[2]
  inhibition at 10 µM: 0%
[1]
  IC50: 2.2 µM

## CC(=N)Nc1ccc2oc(-c3ccc(O)nc3)c(O)c(=O)c2c1 [Example 21, 2-(6-hydroxypyridin-3-yl)-3-hydroxy-6-[(1-iminoethyl)amino]-4H-1-benzopyran-4-one hydrochloride]
[1]
  inhibition at 10 µM: 20%

## CC(=N)Nc1ccc2oc(-c3ccc(S(C)(=O)=O)cc3)c(O)c(=O)c2c1 [Example 9, 2-(4-methansulfonylphenyl)-3-hydroxy-6-[(1-iminoethyl)amino]-4H-1-benzopyran-4-one hydrochloride]
[2]
  inhibition at 10 µM: 20%
[1]
  IC50: 11.5 µM

## CC(=N)Nc1ccc2oc(-c3ccc(O)c(O)c3)c(O)c(=O)c2c1 [Example 10, 2-(3,4-dihydroxyphenyl)-3-hydroxy-6-[(1-iminoethyl)amino]-4H-1-benzopyran-4-one hydrochloride]
[2]
  IC50: 0.61 µM
[1]
  IC50: 3.5 µM

## CC(=N)Nc1ccc2oc(-c3ccc4c(c3)CCO4)c(O)c(=O)c2c1 [Example 15, 2-(dihydrobenzofuran-5-yl)-3-hydroxy-6-[(1-iminoethyl)amino]-4H-1-benzopyran-4-one hydrochloride]
[2]
  inhibition at 10 µM: 10%
[1]
  IC50: 15 µM

## COc1ccc(-c2oc3ccc(NC(=N)CO)cc3c(=O)c2O)cc1 [Example 13, 2-(4-methoxyphenyl)-3-hydroxy-6-[(1-iminoethyl-2-hydroxy)amino]-4H-1-benzopyran-4-one hydrochloride monohydrate]
[2]
  inhibition at 10 µM: 0%
[1]
  IC50: 2.8 µM

## COc1ccc(-c2oc3ccc(NC(C)=N)cc3c(=O)c2O)cc1 [Example 12, 2-(4-methoxyphenyl)-3-hydroxy-6-[(1-iminoethyl)amino]-4H-1-benzopyran-4-one hydrochloride monohydrate]
[2]
  IC50: 2.7 µM
[1]
  IC50: 1.12 µM

## COCCC(=N)Nc1ccc2oc(-c3ccc(-n4ccnc4)cc3)c(O)c(=O)c2c1 [Example 7]
[2]
  inhibition at 10 µM: 31%
[1]
  IC50: 2.4 µM

## CC(=N)Nc1ccc2oc(-c3ccc4c(c3)OCO4)c(O)c(=O)c2c1 [Example 16, 2-(benzo[1,3]dioxol-5-yl)-3-hydroxy-6-[(1-iminoethyl)amino]-4H-1-benzopyran-4-one hydrochloride]
[2]
  inhibition at 10 µM: 32%
[1]
  IC50: 5 µM

## COc1ccc(C(=N)Nc2ccc3oc(-c4ccc(OC)cc4)c(O)c(=O)c3c2)cc1 [Example 14, N-[2-(4-methoxyphenyl)-3-hydroxy-4H-1-benzopyran-4-one-6-yl]-4-methoxybenzene carboxiimidamide hydrochloride]
[2]
  inhibition at 10 µM: 0%
[1]
  IC50: 10 µM

## COCCC(=N)Nc1ccc2oc(-c3ccc4c(c3)OCO4)c(O)c(=O)c2c1 [Example 19, 2-(benzo[1,3]dioxol-5-yl)-3-hydroxy-6-[(1-iminopropyl-3-methoxy)amino]-4H-1-benzopyran-4-one hydrochloride]
[2]
  inhibition at 10 µM: 0%
[1]
  IC50: 8 µM

## CC(=N)Nc1ccc2oc(-c3ccc(-n4ccnc4)cc3)c(O)c(=O)c2c1 [Example 5, 2-[(4-imidazol-1-yl)-phenyl]-3-hydroxy-6-[(1-iminoethyl)amino]-4H-1-benzopyran-4-one hydrochloride]
[2]
  inhibition at 10 µM: 30%
[1]
  IC50: 0.87 µM

## CN1C(C(=O)Nc2ccccn2)=C(O)c2ccccc2S1(=O)=O [Piroxicam, reference compound]
[4]; 3 mg/Kg IP, NE = not effective
  MPE 0.5 hrs: 25%
  MPE 1.5 hrs: 40%
[4]; [5]
  MPE 0.5 hrs: 46%
  MPE 1.5 hrs: 73%
  MPE 3 hrs: 62%
[4]; [6]
  MPE 0.5 hrs: 102%
  MPE 1.5 hrs: 111%
  MPE 3 hrs: 54%
  MPE 6 hrs: 24%
  MPE 24 hrs: 38%
[4]; IP, calculated from the MPE data at 0.5 hrs
  ED100 0.5 hrs: 34.33 mg/kg
[4]; Rattus norvegicus, IP, calculated from the MPE data at 0.5 hrs, read-out: ED50 0.5 hrs
  ED50: 7.65 mg/kg

## CC(=N)Nc1ccc2oc(-c3ccc(OCc4ccccc4)cc3)c(O)c(=O)c2c1 [Example 22, 2-[(4-benzyloxy-phenyl]-3-hydroxy-6-[(1-iminoethyl)amino]-4H-1-benzopyran-4-one hydrochloride]
[1]
  inhibition at 10 µM: 34%

## NCC1(CC(=O)O)CCCCC1 [Gabapentin]
[3]; [6]
  MPE 0.5 hrs: 39%
  MPE 1.5 hrs: 41%
[3]; [7]
  MPE 0.5 hrs: 55%
  MPE 1.5 hrs: 38%
[3]; [8]
  MPE 0.5 hrs: 47%
  MPE 1.5 hrs: 36%
